Measurements as given in ChEMBL document CHEMBL5291721, “A preclinical secondary pharmacology resource illuminates target-adverse drug reaction associations of marketed drugs” (Nat Commun, 2023).

Assays:
[1] = target: Prostaglandin G/H synthase 1 (Homo sapiens, UniProt P23219); format: functional
[2] = target: Prothrombin (Homo sapiens, UniProt P00734); format: functional
[3] = target: T1, Adenosine receptor A3 (Homo sapiens, UniProt P0DMS8)
T1 sequence (P0DMS8 whole entry): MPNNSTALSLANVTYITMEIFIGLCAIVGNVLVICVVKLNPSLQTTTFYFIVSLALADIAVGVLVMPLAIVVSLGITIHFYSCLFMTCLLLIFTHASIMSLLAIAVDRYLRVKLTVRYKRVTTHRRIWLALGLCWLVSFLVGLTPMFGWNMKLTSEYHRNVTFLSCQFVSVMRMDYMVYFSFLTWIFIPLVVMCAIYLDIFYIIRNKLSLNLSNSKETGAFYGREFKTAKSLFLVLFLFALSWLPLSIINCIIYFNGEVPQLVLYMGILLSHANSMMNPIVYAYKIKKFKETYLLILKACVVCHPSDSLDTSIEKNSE

[4] = target: T2, Thromboxane A2 receptor (Homo sapiens, UniProt P21731); format: functional, cell-based
T2 sequence (P21731 whole entry): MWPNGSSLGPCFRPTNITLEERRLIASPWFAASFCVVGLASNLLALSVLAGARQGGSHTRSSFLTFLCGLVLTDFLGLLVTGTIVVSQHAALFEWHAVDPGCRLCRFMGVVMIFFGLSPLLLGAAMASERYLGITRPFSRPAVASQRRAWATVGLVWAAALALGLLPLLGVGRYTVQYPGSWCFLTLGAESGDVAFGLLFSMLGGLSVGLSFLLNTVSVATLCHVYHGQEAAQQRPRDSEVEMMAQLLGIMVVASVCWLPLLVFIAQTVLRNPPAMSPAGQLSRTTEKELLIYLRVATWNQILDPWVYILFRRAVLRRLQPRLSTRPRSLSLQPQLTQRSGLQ

[5] = target: T3, Progesterone receptor (Homo sapiens, UniProt P06401)
T3 sequence (P06401 whole entry): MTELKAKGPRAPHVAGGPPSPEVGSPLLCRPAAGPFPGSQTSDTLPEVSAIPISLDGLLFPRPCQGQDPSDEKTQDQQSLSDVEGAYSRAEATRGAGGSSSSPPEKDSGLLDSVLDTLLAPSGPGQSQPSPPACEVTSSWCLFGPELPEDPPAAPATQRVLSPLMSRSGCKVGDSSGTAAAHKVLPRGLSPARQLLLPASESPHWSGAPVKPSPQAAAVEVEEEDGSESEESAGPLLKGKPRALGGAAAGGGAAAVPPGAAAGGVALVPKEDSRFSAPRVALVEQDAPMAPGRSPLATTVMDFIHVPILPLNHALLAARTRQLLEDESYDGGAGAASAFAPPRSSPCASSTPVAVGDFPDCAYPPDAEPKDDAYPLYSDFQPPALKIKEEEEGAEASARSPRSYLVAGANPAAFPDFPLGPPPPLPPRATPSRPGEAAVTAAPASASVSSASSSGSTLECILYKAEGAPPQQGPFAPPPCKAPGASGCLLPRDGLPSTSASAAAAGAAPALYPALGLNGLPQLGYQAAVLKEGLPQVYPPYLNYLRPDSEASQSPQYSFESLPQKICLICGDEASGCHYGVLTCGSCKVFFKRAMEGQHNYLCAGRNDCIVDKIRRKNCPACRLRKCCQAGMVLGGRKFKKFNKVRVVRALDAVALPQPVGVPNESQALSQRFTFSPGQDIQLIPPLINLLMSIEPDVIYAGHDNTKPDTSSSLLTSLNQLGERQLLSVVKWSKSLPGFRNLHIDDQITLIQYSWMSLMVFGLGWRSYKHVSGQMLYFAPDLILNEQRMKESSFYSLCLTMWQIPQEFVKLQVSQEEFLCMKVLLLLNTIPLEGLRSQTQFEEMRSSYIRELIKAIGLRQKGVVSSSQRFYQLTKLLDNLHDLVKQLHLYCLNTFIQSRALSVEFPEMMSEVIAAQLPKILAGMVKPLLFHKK

[6] = target: T4, Alpha-2A adrenergic receptor (Homo sapiens, UniProt P08913)
T4 sequence (P08913 whole entry): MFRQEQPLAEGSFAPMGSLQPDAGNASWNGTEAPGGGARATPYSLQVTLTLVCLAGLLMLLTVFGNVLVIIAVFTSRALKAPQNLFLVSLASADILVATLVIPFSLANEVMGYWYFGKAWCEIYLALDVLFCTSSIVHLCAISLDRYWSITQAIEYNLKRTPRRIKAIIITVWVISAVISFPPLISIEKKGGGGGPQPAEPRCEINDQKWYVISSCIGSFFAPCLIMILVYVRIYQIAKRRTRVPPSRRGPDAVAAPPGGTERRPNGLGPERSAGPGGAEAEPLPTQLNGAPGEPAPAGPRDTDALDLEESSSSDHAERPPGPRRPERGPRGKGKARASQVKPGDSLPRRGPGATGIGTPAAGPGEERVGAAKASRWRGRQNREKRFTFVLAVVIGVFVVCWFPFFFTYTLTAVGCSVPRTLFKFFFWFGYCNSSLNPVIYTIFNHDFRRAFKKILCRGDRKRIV

[7] = target: T5, Muscarinic acetylcholine receptor M1 (Homo sapiens, UniProt P11229); format: functional, cell-based
T5 sequence (P11229 whole entry): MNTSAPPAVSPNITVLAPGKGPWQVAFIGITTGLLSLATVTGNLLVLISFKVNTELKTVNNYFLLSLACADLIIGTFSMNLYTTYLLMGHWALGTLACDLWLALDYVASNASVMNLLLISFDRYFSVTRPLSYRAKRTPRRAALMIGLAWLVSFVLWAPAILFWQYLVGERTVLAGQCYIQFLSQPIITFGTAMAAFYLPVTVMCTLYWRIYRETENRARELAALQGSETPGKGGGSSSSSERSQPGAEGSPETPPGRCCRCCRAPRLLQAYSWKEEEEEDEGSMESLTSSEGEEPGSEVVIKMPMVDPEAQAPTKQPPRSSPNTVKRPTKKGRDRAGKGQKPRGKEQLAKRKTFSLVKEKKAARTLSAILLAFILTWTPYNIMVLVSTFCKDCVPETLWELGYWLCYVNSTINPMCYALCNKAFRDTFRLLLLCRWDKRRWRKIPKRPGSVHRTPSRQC
Also: assay procedure not described here.

Prostaglandin G/H synthase 1, sequence (P23219 whole entry): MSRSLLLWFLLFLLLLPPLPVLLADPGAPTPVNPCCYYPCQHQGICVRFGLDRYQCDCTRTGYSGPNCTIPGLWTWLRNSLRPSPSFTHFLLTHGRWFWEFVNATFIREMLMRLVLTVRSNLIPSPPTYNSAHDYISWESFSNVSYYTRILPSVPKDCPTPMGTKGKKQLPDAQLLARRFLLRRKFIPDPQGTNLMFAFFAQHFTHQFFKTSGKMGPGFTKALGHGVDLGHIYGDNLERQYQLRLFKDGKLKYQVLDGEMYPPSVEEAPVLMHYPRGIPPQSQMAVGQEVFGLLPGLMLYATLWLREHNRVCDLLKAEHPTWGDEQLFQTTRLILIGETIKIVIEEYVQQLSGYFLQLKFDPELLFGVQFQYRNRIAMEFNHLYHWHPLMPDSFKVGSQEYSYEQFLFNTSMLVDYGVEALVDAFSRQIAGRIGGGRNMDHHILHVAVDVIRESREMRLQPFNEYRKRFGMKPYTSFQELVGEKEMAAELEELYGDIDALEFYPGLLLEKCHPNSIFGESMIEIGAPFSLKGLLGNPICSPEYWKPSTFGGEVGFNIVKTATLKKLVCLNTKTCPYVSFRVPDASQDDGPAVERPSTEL

SMILES	AC50 [1] [µM]	AC50 [2] [µM]	AC50 [3] [µM]	AC50 [4] [µM]	AC50 [5] [µM]	AC50 [6] [µM]	AC50 [7] [µM]
NC1=NCC2c3ccccc3Cc3ccccc3N12 (centres undefined) [EPINASTINE]	> 30	> 30	> 30	> 30	> 30	0.253	> 30
CC(C)COC(=O)OCN1C(=O)CN(CCN2CC(=O)N(COC(=O)OCC(C)C)C(=O)C2)CC1=O [SOBUZOXANE]	> 30	> 30	> 30	> 30	> 30	> 30	> 30
Cc1ccccc1OCC(O)CO (centres undefined) [MEPHENESIN]	> 30	> 30	> 30	> 30	> 30	> 30	> 30
C[S+](CC[C@H](N)C(=O)[O-])C[C@H]1O[C@@H](n2cnc3c(N)ncnc32)[C@H](O)[C@@H]1O (some centres undefined) [ADEMETIONINE]	> 30	> 30	0.174	> 30	> 30	> 30	> 30
CC(C)(C)N1CCC(c2ccccc2)(c2ccccc2)CC1 [BUDIPINE]	> 30	> 30	> 30	> 30	> 30	> 30	0.57
N=C1CCCN1Cc1[nH]c(=O)[nH]c(=O)c1Cl	> 30	> 30	> 30	> 30	> 30	> 30	> 30
O=C(O)c1ccccc1C(=O)Nc1ccc(S(=O)(=O)Nc2nccs2)cc1 [PHTHALYLSULFATHIAZOLE]	8.95	> 30	> 30	> 30	> 30	> 30	> 30
